What was measured:
Assay in all cases: Z'-LYTE kinase panel
Format in all cases: biochemical
PAK1 = target: T1, PAK1 (Homo sapiens, UniProt Q13153)
T1 construct: purchased ThermoFisher (SelectScreen, Z'-LYTE)
Procedure, shortened: (§1)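 Each compound was added at 10 µM, kinase activity was then measured via the standard Z′-LYTE assay, and percentage inhibition was calculated; 225 kinases were covered.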

BMX = target: T2, BMX (Homo sapiens, UniProt P51813)
T2 construct: purchased ThermoFisher (SelectScreen, Z'-LYTE)
T2 sequence (P51813 1-675): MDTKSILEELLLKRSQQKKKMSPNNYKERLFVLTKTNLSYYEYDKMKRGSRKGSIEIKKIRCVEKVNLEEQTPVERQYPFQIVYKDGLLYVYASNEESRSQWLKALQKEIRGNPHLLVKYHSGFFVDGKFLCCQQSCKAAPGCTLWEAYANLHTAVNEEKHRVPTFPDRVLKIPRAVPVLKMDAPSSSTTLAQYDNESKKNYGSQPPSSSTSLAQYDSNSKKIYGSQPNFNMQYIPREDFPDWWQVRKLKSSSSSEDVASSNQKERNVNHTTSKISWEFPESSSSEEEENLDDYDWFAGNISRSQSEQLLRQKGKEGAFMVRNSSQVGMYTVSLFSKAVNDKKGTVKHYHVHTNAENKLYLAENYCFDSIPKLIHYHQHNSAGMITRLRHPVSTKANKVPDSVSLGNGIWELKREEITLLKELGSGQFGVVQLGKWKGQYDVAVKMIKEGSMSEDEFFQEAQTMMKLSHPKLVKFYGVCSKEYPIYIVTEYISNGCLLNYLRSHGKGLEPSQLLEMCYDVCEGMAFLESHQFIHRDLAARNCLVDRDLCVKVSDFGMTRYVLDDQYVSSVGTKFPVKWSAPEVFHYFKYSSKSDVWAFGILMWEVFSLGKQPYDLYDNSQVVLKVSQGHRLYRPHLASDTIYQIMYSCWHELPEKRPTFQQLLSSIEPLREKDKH
Procedure, shortened: as §1

PHKG1 = target: T3, PHKG1 (Homo sapiens, UniProt Q16816)
T3 construct: purchased ThermoFisher (SelectScreen, Z'-LYTE)
Procedure, shortened: as §1

IRAK4 = target: T4, IRAK4 (Homo sapiens, UniProt Q9NWZ3)
T4 construct: purchased ThermoFisher (SelectScreen, Z'-LYTE)
T4 sequence (Q9NWZ3 1-460): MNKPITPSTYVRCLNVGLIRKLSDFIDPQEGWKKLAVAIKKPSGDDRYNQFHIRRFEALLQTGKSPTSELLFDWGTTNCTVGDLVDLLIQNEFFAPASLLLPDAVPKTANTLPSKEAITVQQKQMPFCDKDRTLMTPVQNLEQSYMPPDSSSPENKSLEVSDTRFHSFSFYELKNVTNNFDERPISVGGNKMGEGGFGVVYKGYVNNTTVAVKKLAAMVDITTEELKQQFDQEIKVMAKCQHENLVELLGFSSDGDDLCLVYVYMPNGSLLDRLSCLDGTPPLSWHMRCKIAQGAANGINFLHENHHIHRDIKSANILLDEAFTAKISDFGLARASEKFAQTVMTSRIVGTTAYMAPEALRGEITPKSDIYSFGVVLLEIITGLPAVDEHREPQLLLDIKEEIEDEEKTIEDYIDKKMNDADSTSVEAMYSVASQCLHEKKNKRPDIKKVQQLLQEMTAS
Procedure, shortened: as §1

CSK = target: T5, CSK (Homo sapiens, UniProt P41240)
T5 construct: purchased ThermoFisher (SelectScreen, Z'-LYTE)
Procedure, shortened: as §1

ITK = target: T6, ITK (Homo sapiens, UniProt Q08881)
T6 construct: purchased ThermoFisher (SelectScreen, Z'-LYTE)
T6 sequence (Q08881 1-620): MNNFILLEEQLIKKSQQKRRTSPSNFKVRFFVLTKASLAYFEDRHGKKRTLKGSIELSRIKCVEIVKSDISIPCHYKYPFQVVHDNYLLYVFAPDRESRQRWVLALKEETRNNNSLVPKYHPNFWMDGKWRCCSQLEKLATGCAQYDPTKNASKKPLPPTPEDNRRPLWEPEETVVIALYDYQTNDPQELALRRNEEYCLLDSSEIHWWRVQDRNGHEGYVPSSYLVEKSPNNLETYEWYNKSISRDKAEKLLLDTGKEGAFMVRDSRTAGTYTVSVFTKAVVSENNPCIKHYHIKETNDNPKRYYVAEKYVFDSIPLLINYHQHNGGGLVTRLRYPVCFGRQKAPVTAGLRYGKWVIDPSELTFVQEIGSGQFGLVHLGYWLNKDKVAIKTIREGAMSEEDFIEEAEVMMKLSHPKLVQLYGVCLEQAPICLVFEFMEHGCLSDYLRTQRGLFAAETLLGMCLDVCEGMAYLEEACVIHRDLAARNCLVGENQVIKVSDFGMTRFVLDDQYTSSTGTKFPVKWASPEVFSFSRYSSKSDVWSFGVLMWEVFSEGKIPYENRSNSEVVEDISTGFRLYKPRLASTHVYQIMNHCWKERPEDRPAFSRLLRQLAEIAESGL
Procedure, shortened: as §1

MUSK = target: T7, MUSK (Homo sapiens, UniProt O15146)
T7 construct: purchased ThermoFisher (SelectScreen, Z'-LYTE)
T7 sequence (O15146 24-869): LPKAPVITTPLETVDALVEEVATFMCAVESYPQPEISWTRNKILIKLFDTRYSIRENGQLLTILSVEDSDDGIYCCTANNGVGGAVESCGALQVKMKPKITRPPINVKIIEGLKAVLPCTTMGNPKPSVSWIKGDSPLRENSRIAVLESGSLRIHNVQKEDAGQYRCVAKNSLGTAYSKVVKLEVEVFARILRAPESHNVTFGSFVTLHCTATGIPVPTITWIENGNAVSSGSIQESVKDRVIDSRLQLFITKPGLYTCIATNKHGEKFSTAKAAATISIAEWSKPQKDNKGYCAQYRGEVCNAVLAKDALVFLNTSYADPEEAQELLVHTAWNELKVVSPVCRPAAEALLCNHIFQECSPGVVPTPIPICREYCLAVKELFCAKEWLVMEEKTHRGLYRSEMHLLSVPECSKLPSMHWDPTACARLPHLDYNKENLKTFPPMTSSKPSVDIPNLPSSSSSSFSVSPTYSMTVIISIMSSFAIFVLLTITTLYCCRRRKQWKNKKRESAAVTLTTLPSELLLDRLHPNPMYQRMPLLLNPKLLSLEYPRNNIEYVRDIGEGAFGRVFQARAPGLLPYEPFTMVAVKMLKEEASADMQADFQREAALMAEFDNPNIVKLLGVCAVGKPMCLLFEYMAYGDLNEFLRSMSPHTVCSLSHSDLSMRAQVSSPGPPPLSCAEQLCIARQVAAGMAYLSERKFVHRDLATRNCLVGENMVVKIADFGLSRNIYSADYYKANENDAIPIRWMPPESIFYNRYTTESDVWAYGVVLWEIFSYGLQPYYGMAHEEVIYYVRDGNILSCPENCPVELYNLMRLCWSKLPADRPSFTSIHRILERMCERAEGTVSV
Procedure, shortened: as §1

MAPK8 (JNK1) = target: T8, MAPK8 (JNK1) (Homo sapiens, UniProt P45983); details: 10 µM compound; ATP 100
T8 construct: purchased ThermoFisher (SelectScreen, Z'-LYTE)
Procedure, shortened: as §1

T3 sequence (Q16816 whole entry): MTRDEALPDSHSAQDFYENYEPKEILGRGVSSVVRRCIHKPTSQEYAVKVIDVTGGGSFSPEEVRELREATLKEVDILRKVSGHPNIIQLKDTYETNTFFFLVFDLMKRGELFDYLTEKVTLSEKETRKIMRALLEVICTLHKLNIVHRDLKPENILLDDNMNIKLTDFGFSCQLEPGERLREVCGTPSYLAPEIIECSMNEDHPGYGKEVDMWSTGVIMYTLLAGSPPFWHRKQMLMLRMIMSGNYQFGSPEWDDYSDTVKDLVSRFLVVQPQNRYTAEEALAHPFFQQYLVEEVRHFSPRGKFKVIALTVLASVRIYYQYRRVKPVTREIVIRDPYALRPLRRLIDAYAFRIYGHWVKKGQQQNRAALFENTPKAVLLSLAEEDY
T8 sequence (P45983 whole entry): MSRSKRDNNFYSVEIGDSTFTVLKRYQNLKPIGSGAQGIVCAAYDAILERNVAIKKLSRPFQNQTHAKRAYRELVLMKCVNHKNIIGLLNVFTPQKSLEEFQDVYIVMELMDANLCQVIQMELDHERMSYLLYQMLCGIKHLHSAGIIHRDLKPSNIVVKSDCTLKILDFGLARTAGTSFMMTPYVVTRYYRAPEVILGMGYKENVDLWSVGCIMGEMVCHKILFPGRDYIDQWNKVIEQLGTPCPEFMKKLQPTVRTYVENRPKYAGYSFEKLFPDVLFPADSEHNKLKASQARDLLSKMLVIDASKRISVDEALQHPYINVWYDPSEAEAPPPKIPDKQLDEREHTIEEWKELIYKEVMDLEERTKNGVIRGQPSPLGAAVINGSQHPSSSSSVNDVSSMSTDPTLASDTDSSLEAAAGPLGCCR
T1 sequence (Q13153 whole entry): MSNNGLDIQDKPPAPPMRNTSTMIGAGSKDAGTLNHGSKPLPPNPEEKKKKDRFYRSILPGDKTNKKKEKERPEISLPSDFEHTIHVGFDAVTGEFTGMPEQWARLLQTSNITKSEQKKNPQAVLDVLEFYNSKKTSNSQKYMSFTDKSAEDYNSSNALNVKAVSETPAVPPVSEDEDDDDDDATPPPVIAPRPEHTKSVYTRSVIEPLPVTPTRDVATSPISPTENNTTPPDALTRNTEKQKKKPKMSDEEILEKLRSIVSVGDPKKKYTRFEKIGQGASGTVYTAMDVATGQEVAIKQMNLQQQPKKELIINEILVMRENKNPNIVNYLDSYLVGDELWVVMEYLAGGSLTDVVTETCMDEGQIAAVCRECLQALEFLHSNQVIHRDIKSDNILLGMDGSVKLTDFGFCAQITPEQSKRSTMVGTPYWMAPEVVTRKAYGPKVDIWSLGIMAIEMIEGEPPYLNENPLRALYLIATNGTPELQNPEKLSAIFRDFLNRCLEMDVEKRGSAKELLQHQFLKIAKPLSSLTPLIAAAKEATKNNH
T5 sequence (P41240 whole entry): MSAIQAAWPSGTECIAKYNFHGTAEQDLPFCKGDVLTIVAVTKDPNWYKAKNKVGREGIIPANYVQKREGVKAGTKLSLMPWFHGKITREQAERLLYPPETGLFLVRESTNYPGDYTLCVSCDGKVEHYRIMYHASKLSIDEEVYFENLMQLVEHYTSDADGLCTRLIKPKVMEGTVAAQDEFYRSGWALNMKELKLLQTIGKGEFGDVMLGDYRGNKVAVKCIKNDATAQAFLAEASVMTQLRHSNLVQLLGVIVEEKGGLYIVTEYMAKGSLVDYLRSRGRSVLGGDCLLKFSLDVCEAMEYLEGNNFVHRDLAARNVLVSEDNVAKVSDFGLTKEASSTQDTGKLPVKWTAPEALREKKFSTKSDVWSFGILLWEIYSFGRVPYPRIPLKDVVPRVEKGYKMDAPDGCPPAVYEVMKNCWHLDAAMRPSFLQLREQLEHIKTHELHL

XMD8-92 [Compound 2, reference compound]
PAK1 % Inhibition (PAK1; 10 µM compound, ATP Km app): 8%
BMX % Inhibition (BMX; 10 µM compound, ATP Km app): 41%
PHKG1 % Inhibition (PHKG1; 10 µM compound, ATP Km app): 12%
IRAK4 % Inhibition (IRAK4; 10 µM compound, ATP Km app): -9%
CSK % Inhibition (CSK; 10 µM compound, ATP Km app): 11%
ITK % Inhibition (ITK; 10 µM compound, ATP Km app): 18%
MUSK % Inhibition (MUSK; 10 µM compound, ATP Km app): 21%
MAPK8 (JNK1) % Inhibition (MAPK8 (JNK1)): 14%

Cc1ncc(-c2nc(Nc3ccc(C(=O)NCCN4CCCCC4)cc3)ncc2F)n1C(C)C [Compound 3]
inhibition at 10 µM (PAK1): 51%
inhibition at 10 µM (BMX): 68%
inhibition at 10 µM (PHKG1): 100%
inhibition at 10 µM (IRAK4): 71%
inhibition at 10 µM (CSK): 29%
inhibition at 10 µM (ITK): 88%
inhibition at 10 µM (MUSK): 92%
inhibition at 10 µM (MAPK8 (JNK1)): 96%

Cc1cc(Nc2nc(N)nn2C(=O)NC(C)C)ccc1Cl [Compound 5]
inhibition at 10 µM (PAK1): -12%
inhibition at 10 µM (BMX): 19%
inhibition at 10 µM (PHKG1): -5.38%
inhibition at 10 µM (IRAK4): -2.32%
inhibition at 10 µM (CSK): 16%
inhibition at 10 µM (ITK): 10%
inhibition at 10 µM (MUSK): 22%
inhibition at 10 µM (MAPK8 (JNK1)): -11%
